In patent US20240023549A1 (published 2024):

Row | melting point | SMILES
1 | 89 to 92 °C | CCN(C)/C=N/c1cc(C)c(C(=O)n2ccc3cc(C(F)(F)F)ccc32)cc1C
2 | 147 to 149 °C | CCN(C)/C=N/c1cc(C)c(C(=O)Nc2ccccc2)cc1C
